Series [1] addresses Serine/threonine-protein kinase B-raf (Homo sapiens, UniProt P15056). The series is described as follows: Inhibition of wild type BRAF (unknown origin).
The target of series [2] is Serine/threonine-protein kinase B-raf (Homo sapiens, UniProt P15056, V600E). The experiment in a line: Inhibition of BRAF V600E mutant (unknown origin).
The target of series [3] is RAF proto-oncogene serine/threonine-protein kinase (Homo sapiens, UniProt P04049). The experiment in a line: Inhibition of C-RAF (unknown origin).
For series [4], the system named is A549. The series is described as follows: Antiproliferative activity against human A549 cells. The series is classed as functional, cell-based.
Series [5] relates to PC-3. The experiment in a line: Antiproliferative activity against human PC-3 cells. The series is classed as functional, cell-based.
In series [6] the test system is HepG2. The series is described as follows: Antiproliferative activity against human HepG2 cells assessed as reduction in cell growth after 72 hrs by MTT assay. The series is classed as functional, cell-based. As to conditions: HepG2, 72 h. On the technique in general: Tetrazolium dyes change colour on reduction, which living cells bring about.
Series [7] concerns HCT-116. The experiment in a line: Antiproliferative activity against human HCT-116 cells assessed as reduction in cell viability measured after 72 hrs by MTT assay. As to conditions: HCT-116, 72 h. The series is classed as functional, cell-based.
The subject of series [8] is A-375. The experiment in a line: Antiproliferative activity against human A-375 cells assessed as reduction in cell viability measured after 72 hrs by MTT assay. The series is classed as functional, cell-based. As to conditions: A-375, 72 h.
Series [9] has as its system MCF7. The series is described as follows: Antiproliferative activity against human MCF7 cells assessed as reduction in cell viability measured after 72 hrs by MTT assay. The series is classed as functional, cell-based. The conditions noted are these: MCF7, 72 h.
In series [10] the test system is MIA PaCa-2. The series is described as follows: Antiproliferative activity against human MIA PaCa-2 cells assessed as inhibition of cell growth incubated for 48 hrs by MTS assay. The series is classed as functional, cell-based. As to conditions: MIA PaCa-2, 48 h.
A short description of series [11]: Inhibition of VEGFR (unknown origin). Also on record: species or system Homo sapiens.
Series [12] addresses Vascular endothelial growth factor receptor 2 (Homo sapiens, UniProt P35968). The series is described as follows: Inhibition of VEGFR2 (unknown origin).
For series [13], the system named is EA.hy 926. The series is described as follows: Antiproliferative activity against human EA.hy 926 cells assessed as reduction in cell viability incubated for 48 hrs by MTT assay. The series is classed as functional, cell-based. As to conditions: EA.hy 926, 48 h.
Series [14] has as its system U-87 MG. The series is described as follows: Antiproliferative activity against human U87 cells assessed as inhibition of cell viability incubated for 72 hrs by MTT assay. The series is classed as functional, cell-based, U-87MG ATCC.
Series [15] in a line: Half life in human at 140 mg.
The nature of series [16]: Tmax in human at 140 mg. The series is classed as ADME.
The nature of series [17]: Cmax in human at 140 mg. The series is classed as ADME.

Three molecules from ChEMBL document CHEMBL5500383, “Recent advances and future directions on small molecule VEGFR inhibitors in oncological conditions” (Eur J Med Chem, 2024) can be followed below.

Where only a bound is given, the exact number is not on record here.

RAF proto-oncogene serine/threonine-protein kinase, sequence (P04049 whole entry): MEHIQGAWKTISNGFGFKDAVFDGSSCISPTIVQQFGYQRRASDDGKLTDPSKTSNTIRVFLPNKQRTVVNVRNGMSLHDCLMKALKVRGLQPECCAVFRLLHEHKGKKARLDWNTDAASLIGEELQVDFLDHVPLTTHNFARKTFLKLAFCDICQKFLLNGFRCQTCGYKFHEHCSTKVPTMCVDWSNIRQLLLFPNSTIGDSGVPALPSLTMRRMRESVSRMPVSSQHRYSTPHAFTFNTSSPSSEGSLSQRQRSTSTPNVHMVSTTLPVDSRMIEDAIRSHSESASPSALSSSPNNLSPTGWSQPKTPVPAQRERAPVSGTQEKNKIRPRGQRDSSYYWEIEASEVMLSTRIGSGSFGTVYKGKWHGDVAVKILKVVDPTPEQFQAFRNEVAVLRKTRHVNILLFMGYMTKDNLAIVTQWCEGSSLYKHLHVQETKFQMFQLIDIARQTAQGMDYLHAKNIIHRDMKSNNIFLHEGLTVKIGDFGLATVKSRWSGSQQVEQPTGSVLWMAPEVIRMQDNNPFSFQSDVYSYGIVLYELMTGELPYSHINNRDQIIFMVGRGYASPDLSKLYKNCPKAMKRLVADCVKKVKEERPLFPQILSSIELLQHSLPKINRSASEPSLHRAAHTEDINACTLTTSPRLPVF
Serine/threonine-protein kinase B-raf (Homo sapiens, UniProt P15056), sequence (P15056 whole entry): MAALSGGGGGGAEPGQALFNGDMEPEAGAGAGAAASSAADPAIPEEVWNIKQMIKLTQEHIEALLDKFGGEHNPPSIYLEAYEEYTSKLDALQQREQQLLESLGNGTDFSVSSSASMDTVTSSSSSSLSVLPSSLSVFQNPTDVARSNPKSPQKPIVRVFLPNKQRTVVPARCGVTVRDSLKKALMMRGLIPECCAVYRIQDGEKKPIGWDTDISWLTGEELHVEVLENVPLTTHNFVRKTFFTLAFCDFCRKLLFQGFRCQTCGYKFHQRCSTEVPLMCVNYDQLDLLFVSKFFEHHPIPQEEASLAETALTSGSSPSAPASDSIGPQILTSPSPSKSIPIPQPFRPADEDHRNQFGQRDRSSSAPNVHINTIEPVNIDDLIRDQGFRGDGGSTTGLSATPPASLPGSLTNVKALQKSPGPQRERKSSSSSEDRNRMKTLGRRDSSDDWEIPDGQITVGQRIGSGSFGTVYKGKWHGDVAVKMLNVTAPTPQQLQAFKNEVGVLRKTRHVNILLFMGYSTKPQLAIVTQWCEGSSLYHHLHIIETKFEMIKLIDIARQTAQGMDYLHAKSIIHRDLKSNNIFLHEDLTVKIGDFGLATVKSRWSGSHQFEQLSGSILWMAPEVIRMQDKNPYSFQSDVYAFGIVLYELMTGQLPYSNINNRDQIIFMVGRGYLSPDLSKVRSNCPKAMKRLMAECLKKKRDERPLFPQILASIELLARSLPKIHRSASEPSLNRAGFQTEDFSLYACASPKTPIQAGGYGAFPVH
Vascular endothelial growth factor receptor 2, sequence (P35968 whole entry): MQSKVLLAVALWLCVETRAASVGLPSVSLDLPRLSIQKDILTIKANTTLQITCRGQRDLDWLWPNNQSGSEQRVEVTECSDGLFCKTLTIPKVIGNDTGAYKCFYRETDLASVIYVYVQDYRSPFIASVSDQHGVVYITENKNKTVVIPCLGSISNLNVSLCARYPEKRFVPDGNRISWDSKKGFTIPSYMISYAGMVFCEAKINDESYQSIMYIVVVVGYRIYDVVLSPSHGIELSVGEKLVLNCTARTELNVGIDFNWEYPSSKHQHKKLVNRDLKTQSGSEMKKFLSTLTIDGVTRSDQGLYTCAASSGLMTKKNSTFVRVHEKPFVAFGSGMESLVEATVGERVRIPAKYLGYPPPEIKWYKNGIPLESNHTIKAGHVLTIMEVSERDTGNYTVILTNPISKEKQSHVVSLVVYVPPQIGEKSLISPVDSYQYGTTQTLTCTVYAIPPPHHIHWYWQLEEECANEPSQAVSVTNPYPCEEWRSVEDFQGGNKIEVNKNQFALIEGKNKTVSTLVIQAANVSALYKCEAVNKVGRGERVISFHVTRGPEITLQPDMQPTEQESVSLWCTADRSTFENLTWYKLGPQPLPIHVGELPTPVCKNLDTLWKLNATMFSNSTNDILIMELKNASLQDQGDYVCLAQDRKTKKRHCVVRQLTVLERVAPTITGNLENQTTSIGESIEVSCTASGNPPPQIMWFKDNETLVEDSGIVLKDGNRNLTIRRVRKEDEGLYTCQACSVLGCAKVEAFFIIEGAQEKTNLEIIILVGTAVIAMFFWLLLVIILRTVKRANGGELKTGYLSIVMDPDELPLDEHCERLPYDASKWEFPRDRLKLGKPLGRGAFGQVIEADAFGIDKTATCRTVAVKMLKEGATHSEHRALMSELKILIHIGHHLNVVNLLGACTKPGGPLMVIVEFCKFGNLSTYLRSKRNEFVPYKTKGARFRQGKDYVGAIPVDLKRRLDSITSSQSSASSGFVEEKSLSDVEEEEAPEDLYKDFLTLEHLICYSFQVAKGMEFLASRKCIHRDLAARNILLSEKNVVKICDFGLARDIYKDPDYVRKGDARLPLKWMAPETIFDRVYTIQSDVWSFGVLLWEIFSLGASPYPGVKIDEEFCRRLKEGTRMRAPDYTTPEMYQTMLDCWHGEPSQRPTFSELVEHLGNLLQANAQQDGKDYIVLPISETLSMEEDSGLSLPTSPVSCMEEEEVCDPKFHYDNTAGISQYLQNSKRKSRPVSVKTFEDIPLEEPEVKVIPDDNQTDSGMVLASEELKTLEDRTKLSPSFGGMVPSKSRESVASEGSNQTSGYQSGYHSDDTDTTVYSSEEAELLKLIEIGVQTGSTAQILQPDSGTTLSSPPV
Serine/threonine-protein kinase B-raf (Homo sapiens, UniProt P15056, V600E), sequence (P15056 2-766 V600E limits assumed): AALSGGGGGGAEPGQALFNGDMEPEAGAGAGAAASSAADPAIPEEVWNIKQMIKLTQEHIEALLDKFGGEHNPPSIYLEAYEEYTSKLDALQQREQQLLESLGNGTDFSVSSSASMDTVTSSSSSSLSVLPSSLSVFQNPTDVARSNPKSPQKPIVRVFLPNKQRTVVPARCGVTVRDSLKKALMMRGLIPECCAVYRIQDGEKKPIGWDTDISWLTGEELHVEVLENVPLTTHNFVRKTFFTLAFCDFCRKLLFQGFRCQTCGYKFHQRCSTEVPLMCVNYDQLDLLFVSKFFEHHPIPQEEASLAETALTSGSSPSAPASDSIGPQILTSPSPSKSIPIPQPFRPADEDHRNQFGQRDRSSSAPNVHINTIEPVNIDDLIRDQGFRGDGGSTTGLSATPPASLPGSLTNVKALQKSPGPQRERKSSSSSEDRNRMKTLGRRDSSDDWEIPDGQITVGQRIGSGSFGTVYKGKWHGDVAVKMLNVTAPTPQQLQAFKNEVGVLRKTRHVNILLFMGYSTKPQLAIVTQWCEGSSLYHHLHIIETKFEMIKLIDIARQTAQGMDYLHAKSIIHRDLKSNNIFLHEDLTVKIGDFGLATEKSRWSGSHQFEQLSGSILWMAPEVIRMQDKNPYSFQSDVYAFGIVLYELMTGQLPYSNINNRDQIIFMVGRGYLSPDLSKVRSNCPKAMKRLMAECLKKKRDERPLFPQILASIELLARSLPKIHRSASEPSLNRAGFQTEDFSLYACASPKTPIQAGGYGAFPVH

One may read the IC50 as the concentration needed to halve the response being measured. In the case of `O=C(CSc1nc2ccccc2c(=O)n1-c1ccc(Cl)cc1)Nc1ccc(-c2nc3ccccc3[nH]2)cc1`, the half-maximal inhibitory concentration (IC50) in series [1] turned out to be 20 nM; in series [2] it was 2 nM; in series [3] it was 100 nM; in [4] it was 100 nM; in series [5] it was 100 nM; in series [6], 100 nM. In addition, the IC50 in series [7] is 100 nM; in series [8], 100 nM; in series [9], 100 nM; in series [10] it was 100 nM; in [11], over 100000 nM.
With `O=C(Nc1ccc(Oc2ccnc(C(=O)NCCCCNC(=O)C3CC4C=CC3C4)c2)cc1)Nc1ccc(Cl)c(C(F)(F)F)c1` (configuration not stated), the figures for the IC50 in series [12], in series [13] and in series [14] were 230 nM, 47 nM and 63600 nM, respectively.
For orientation: half-life means how long it takes for the measured level to halve. A lower half-life goes with fast loss. Broadly, the Tmax is the time at which the peak concentration occurs. What is called Cmax is the highest concentration seen after dosing. Consider `COc1cc2nccc(Oc3ccc(NC(=O)C4(C(=O)Nc5ccc(F)cc5)CC4)cc3)c2cc1OC` [CABOZANTINIB], for which the half-life in series [15] is 112 h. The Tmax in series [16] amounted to 4 h. In [17], the highest level (Cmax) was 554 ng/mL.
